“Also recorded” adds a separate entry of the source.
Columns and labels:
nervous dogs [1] = assay: Example 11 Study 1: baseline behavior and heart rate after collar or spray; assay type: in vivo, dog; details: for pacing-walking behavior of individual dogs: Study 1, FIG. 3A; for sitting behavior of individual dogs: FIG. 3C; for heart rate of individual dogs: Study 1, dogs 1-4, FIG. 6; for overall dog heart rate and its decline: dogs 1-4, two hours after collar or spray, FIGS. 4, 5
Excerpt: (§1) Eight dogs were obtained from a local contract research facility and assessment was made as to general dog health, behavior and heart rate. The dogs were estimated to be 2 to 7 years of age, mixed breed, and weighed averagely 8.1±0.18 kg at the start of the studies. […] Upon arrival each dog was bathed using shampoo containing flea and tick medicine (Hartz Mountain Corp. Secaucus, N.J. USA), and their body hair was shaved. Each dog was kept in a single room, which had 100% fresh air intake and exhaust. The dogs were fed twice (am and pm) per day ad libitum. At that time, the room was cleaned and the dogs obtained extra exercise. Water was available ad libitum.
(§2) Dog behavior was captured on video media at a sampling rate of 30 frames per second. Video records were reviewed in real time (with tape playing 30 frames per second). A scan sampling method was used to record dog behaviors each minute or each 5 minutes depending on the particular study. If the sample period was 120 minutes with four periods (0-30=0, 30-60=30, 60-90=60, and 90-120-90 min), then a scan sample was recorded each 1 minute. If the sample period was 24 hours, then the scan sample was collected each 5 minutes and summarized each hour. For example, pacing is when a dog walks in a stereotyped manner for minutes to hours. Because it was not easy to distinguish walking from pacing, the behaviors were merged. In addition, the video records could not clearly distinguish lying down and awake versus lying down and sleeping, therefore there was no separate description for these two behaviors.
(§3) Heart rate during the studies was measured by the use of a non-invasive telemetry system (Data Science International, St. Paul, Minn., USA). Leads were placed in contact with the dogs' shaved skin. Sensors measured heart rate, surface temperature and general activity. Data were transmitted to a receiving computer in another room. The sampling rate varied with the study, but was 5 seconds for the first two hours after treatments and then each 1 minute for 24 hours (depending on the particular study). For surface temperature measurements of the dog subjects, a thermistor was located against the skin of each dog. It recorded the surface temperature to the neared 0.1° C. on the same interval as the heart rate data.
(§4) Behavior and physiological data (heart rate and surface temperature) were analyzed by least squares analysis of variance using SAS (2011) software and the general linear models procedures. The experimental design of each study was a specialized randomized complete block in a Latin square design with data collected as a split plot over time. Dogs represented the blocks. Each dog received each treatment randomly in successive days or weeks. The statistical model included effects of treatment (TRT), dog, dog by treatment (TRT*DOG; error term used to assess treatment and dog effects), time (HR), treatment by time (TRT*HR), and residual error (SE; used to test remaining effects). Behavior data were collected and analyzed as counts per time period, but for clarity of presentation, the data are reported as percentage of time dogs engaged in each behavior.
In Study 1, baseline heart rate data were collected while the dogs each experienced 4 different treatments—a placebo collar (PLACEBO), Pheromone “H” Collar (SERG), Dog Appeasing Pheromone in collar form (DAPC) and the Rabbit Pheromone (RP; 1 μg/mL) formulated into a spray in accordance with Example 8. Each of the four treatments was given to each dog in a random order, with the treatment changing each week. Baseline heart rate and behavior data were collected for 30 minutes before each treatment application (see Table 8) and 2 hours after (see Table 9) (expressed in % of time).

cat = assay: Collar containing rabbit pheromone worn by cats (Example 7); assay type: in vivo; details: collar worn by a cat
Excerpt: A collar containing 2-methylbut-2-enal can be prepared in accordance with Examples 1 or 2.

anxious dogs = assay: Efficacy of pheromone/INTEROMONE collars on dog heart rate, 24 h baseline and after Fog Horn startle (Example 4); assay type: in vivo
Procedure: Heart rate and surface temperature were measured by telemetry.
The study was conducted in two phases: Baseline and after startle. In the baseline study each of the four dogs received each collar treatment in random order for two days at a time. Heart rate and surface temperature were collected each 5 seconds for 24 hours. In the second phase, dogs were startled with a 110 dB Fog Horn and heart rate was measured each 1 second for 10 minutes before and 2 hours after startle.

nervous dogs [2] = assay: Example 11 Study 3: DAP spray versus RP spray with startle; assay type: in vivo, dog
Excerpt: as §1, §2, §3, §4
In Study 1 and 2, the DAP was applied as a collar and the rabbit pheromone as a spray. To test if the physical form of the pheromone/INTEROMONE® impacted its efficacy, Study 3 examined the behavior and heart rate effects of Dog Appeasing Pheromone (DAP) and rabbit pheromone (RP) both applied as a spray after startle in order to obtain a direct comparison between sprays. Accordingly, Study 3 examined the relative effect of DAP spray (DAPS) and RP spray on the behavior and heart rate of the dog subjects. Both treatments were given to each dog in a random order. In this study, the Behavior data were collected from dogs 1-8 while heart rate data were collected from dogs 1-4.

dogs = assay: Overall conclusions and meta-analysis across Studies 1-4; assay type: in vivo, dog
Procedure: Three delivery methods were examined (collar, spray, and room diffuser) and conclusions may be drawn about their efficacy. First, the pheromones were similar in efficacy when applied as a collar or spray. When used as a room diffuser, the pheromones/INTEROMONE® compositions had fewer significant effects compared with when they were delivered in collar or spray form. […] Meta-analyses were performed across studies to identify potential over-arching effects (FIGS. 18A and B). […] The reaction of most dogs to handling or startle was to go lay down; but the dogs exposed to rabbit INTEROMONE®were more likely to sit. Other than this general effect, each other finding must be considered within the context of the form of delivery (spray, collar or room diffuser) and the response of individual dog.

rabbit pups = details: presented on its own to rabbit pups; Schaal et al. 2003; cited from earlier work
[3] = 120 minutes after treatment, no startle, SERG, DAPC collars, RP spray 1 μg/mL

Structure (SMILES): C/C=C(\C)C=O [RP, 2-methylbut-2-enal]
- sitting over time versus other treatments (nervous dogs [1]; 2-hour period after collar or spray, FIG. 3D): In the 60 minute period after treatment with rabbit pheromone, dogs also sat more than with the other treatments
- average time dogs sat (nervous dogs [1]; 30 minute period after spray, FIG. 3D): ~50 % of the time
- Defecate (nervous dogs [1]; [3]): 0 % of time
- Drink (nervous dogs [1]; [3]): 0.0 % of time
- Eat (nervous dogs [1]; [3]): 0.0 % of time
- Lick self (nervous dogs [1]; [3]): 0 % of time
- Lying down (nervous dogs [1]; [3]): 58.5 % of time
- Pace-walk (nervous dogs [1]; [3]): 7.6 % of time
- Sitting (nervous dogs [1]; [3]): 93.1 % of time
- Standing (nervous dogs [1]; [3]): 3.1 % of time
- Urinate (nervous dogs [1]; [3]): 0 % of time
- pacing-walking behavior of individual dogs (nervous dogs [1]; listed as RP spray): dog 7 showed reduced pacing-walking; also recorded: increased pacing-walking of dog 1 compared with the DAP collar
- pacing-walking behavior of individual dogs (nervous dogs [1]; listed as rabbit INTEROMONE® spray): Dog 3 increased pacing with Serg, but reduced its pacing with DAP collar and rabbit INTEROMONE® spray; also recorded: Dog 7's pacing was reduced by DAP collar and reduced even more by rabbit INTEROMONE® spray
- lying down behavior / activity of individual dogs (nervous dogs [1]; Study 1, compared with Placebo, FIG. 3B): For dog 2, both SERG and RP reduced lying down behavior significantly; also recorded: For dog 8, only RP increased dog activity and reduced lying down
- sitting behavior of individual dogs (nervous dogs [1]; Study 1, compared with Placebo, listed as RP spray): increased dog sitting in dogs 2 and 8
- sitting behavior of individual dogs (nervous dogs [1]; Study 1, compared with Placebo, listed as rabbit pheromone): dogs 2 and 8 showed increased sitting
- heart rate of individual dogs (nervous dogs [1]): decreased the heart rates of dogs 3 and 4 compared to other treatments
- heart rate of individual dogs (nervous dogs [1]; listed as Rabbit pheromone): decreased heart rate in dog 3
- heart rate of individual dogs (nervous dogs [1]; listed as rabbit pheromone spray): Dog 3 had decreased heart rate
- speed of calming (nervous dogs [1]; Study 1, spray versus collar): calms dogs faster than treatment with DAP collar
- heart rate decline (slope of regression equation) (nervous dogs [1]; dogs 1-4, FIG. 5, placebo 6 bpm/h): 24.5 bpm/h
- overall dog heart rate and its decline (nervous dogs [1]): had the greatest effect in decreasing dog heart rate
- overall dog heart rate and its decline (nervous dogs [1]; listed as rabbit pheromone): most significantly (P<0.05) reduced overall dog heart rate; also recorded: greater decline in heart rate than Placebo
- change in cat behavior (cat): significant change in behavior towards a calmer demeanor
- heart rate over 24 hours with collar (overall and individual dogs) (anxious dogs; baseline phase, versus Placebo, FIG. 19): increased the heart rate of dog 1
- heart rate after startle (individual dogs) (anxious dogs; collar, 110 dB Fog Horn startle, FIG. 20): Dogs 1 and 4 had reduced heart rate
- decline in heart rate from hour of startle (hour 1) to next hour (hour 2), slope of regression (anxious dogs; collar, after startle, FIG. 21, placebo 15 bpm): 26.6 bpm
- Defecate (nervous dogs [2]; DAPS or RP spray with startle): 0.93 % of time
- Drink (nervous dogs [2]; DAPS or RP spray with startle): 0 % of time
- Eat (nervous dogs [2]; DAPS or RP spray with startle): 0 % of time
- Lick self (nervous dogs [2]; DAPS or RP spray with startle): 0 % of time
- Lying down (nervous dogs [2]; DAPS or RP spray with startle): 43.8 % of time
- Pace-walk (nervous dogs [2]; DAPS or RP spray with startle): 9.8 % of time
- Sitting (nervous dogs [2]; DAPS or RP spray with startle): 35.4 % of time
- Standing (nervous dogs [2]; DAPS or RP spray with startle): 3.7 % of time
- Urinate (nervous dogs [2]; DAPS or RP spray with startle): 0 % of time
- sitting, main effect of treatment (nervous dogs [2]; RP spray versus DAP spray, startle): tended to sit more (P=0.068) than DAP sprayed dogs
- heart rate change relative to time zero (nervous dogs [2]; spray and startle, dogs 1-4, FIG. 14B): generally unchanged over time, although were lower than baseline rate
- lying down of individual dogs (nervous dogs [2]; sprays, during startle, FIG. 13): Dog 3 showed increased lying down
- pacing-walking and standing of individual dogs (nervous dogs [2]; sprays, startle, FIGS. 11 and 12): dogs 1 and 4 had increased pacing-walking
- behaviors in meta-analysis across studies (dogs; Studies 1, 2 and 4, FIG. 18): Only dog sitting behavior was increased
- overall effect on dog behavior and physiology (dogs; collar, spray and room diffuser, all four studies): most consistent or largest effect on dog behavior and physiology
- concentration sufficient to elicit full nipple search and grasping behavior (as low as) (rabbit pups): 10 ng/mL

From US8741965B2, “Method of administering a pheromone composition to an animal to modify the animals behavior over an extended period of time” (Sergeant's Pet Care Products, Inc., priority 2011, dated 2014)
